Results published in patent US11987568B2, “Allosteric inhibitor of WEE1 kinase” (H. LEE MOFFITT CANCER CENTER AND RESEARCH INSTITUTE, INC., priority 2018, dated 2024).

What was measured:
LAPC4 cells = experiment: LAPC4 cell proliferation, trypan blue exclusion assay; format: cell-based; details: Homo sapiens, 96 hr, viable cells by trypan blue exclusion
Source text: FIGS. 2A-2B show identification of 3 distinct types of inhibitors. […] In addition, the lysates were also subjected to by immunoblotting with […]-Cdc2 or actin antibodies (middle and bottom panels). […] The number vehicle treated cells were used as control and percent of surviving cells were plotted. […] The number of vehicle treated cells were used as control and percent of surviving cells were plotted. […] The number vehicle treated cells were used as control and percent of surviving cells were plotted. 7 of these epigenetic inhibitors in various assays such as cell proliferation assay, an in vitro kinase assay were performed and WEE1 autophosphorylation in vivo was determined. Prostate cancer derived LAPC4 cells were treated with inhibitors and its effect on cell proliferation was examined.

Wee2 KD = target: T1, Wee2 KD (Homo sapiens, UniProt P0C1S8); experiment: Differential Scanning Fluorimetry (DSF), Wee2 KD; format: binding; details: kinase domain purified from HEK293T cells
T1 construct: WEE1 & WEE2 (as control) kinase domains from mammalian cells (HEK293T cells) were purified
Method: (§1) Binding study of WEE1 epigenetic inhibitors: To identify the precise binding region/domain of WEE1 epigenetic inhibitors, WEE1 & WEE2 (as control) kinase domains from mammalian cells (HEK293T cells) were purified. The binding of inhibitors was assessed using Differential Scanning Fluorimetry (DSF).

WEE1 = WEE1 (Homo sapiens, UniProt P30291); experiment: Endogenous WEE1 auto-phosphorylation in cells (WEE1 IP, pTyr immunoblot); format: cell-based; details: LNCaP cells, 10 μM overnight (FIG. 3B)
Method: The reaction mix was then subjected to immunoprecipitated with WEE1 antibodies, followed by immunoblotting with pTyr antibodies (top panel). As a control, purified ACK1 protein was incubated in the reaction buffer containing ATP, in presence of 100 nM epigenetic inhibitors. The reaction mix was then subjected to immunoprecipitated with ACK1 antibodies, followed by immunoblotting with pTyr antibodies (bottom panel). […] In addition, the lysates were also subjected to immunoblotting with actin antibodies (bottom panel). […] In addition, the lysates were also subjected to immunoblotting with actin antibodies (bottom panel). […] In addition, the lysates were also subjected to immunoblotting with actin antibodies (bottom panel). To determine direct binding of these compounds causing WEE1 inhibition, a full length WEE1 kinase protein was incubated with the compounds. […] These inhibitors were further validated by assessing their ability to suppress endogenous WEEE activity; LNCaP cells were treated with 10 μM of these compounds overnight.

Plasma Stability, Human = format: in vitro ADME
Method: (§2) ADME studies with 55152 (18-B3) and 367416 (16-G9): The solubility, microsome stability and plasma stability of these two compounds were also determined (Table 2).

Plasma Stability, Mouse = format: in vitro ADME
Method: as §2

[1] = test system: Cdc2 Tyr15-phosphorylation (pY15-Cdc2); experiment: WEE1 cell cycle inhibitory activity in cells: pY15-Cdc2 immunoblot; format: cell-based, human; details: LNCaP cells, 3 uM, 48 hours (FIG. 2A)
Source text: FIGS. 2A-2B show identification of 3 distinct types of inhibitors. […] In addition, the lysates were also subjected to by immunoblotting with […]-Cdc2 or actin antibodies (middle and bottom panels). […] The number vehicle treated cells were used as control and percent of surviving cells were plotted. […] In addition, the lysates were also subjected to immunoblotting with actin antibodies (bottom panel). Identification of compounds with WEE1 epigenetic inhibitory role: 14 'hits' that were identified in the screen are shown in FIG. 1. These compounds were further tested for their ability to inhibit WEE1 epigenetic activity. Prostate cancer derived LNCaP cells were treated with 3 uM of compounds for 48 hours. […] Lysates were also assessed for WEE1 cell cycle inhibitory activity by determining Cdc2 Tyr15-phosphorylation ([…]-Cdc2). […] These are named as 'Cell Cycle' inhibitors. […] These compounds are the 'Epigenetic' inhibitors.

Wee1 KD = target: T2, Wee1 KD (Homo sapiens, UniProt P30291); experiment: Differential Scanning Fluorimetry (DSF), Wee1 KD; format: binding; details: kinase domain purified from HEK293T cells
T2 construct: WEE1 & WEE2 (as control) kinase domains from mammalian cells (HEK293T cells) were purified
Method: as §1

[2] = Microsome Stability, Mouse; format: in vitro ADME
Method: as §2

[3] = test system: IDH2 mRNA in melanoma cell line WM66; experiment: IDH2 mRNA qRT-PCR in WM66 cells; format: cell-based; details: 10 uM, 16 hr
Method: WM66 cells (FIG. 5A) or primary melanocytes (FIG. 5B) were treated with vehicle or compounds (10 uM) for 16 hr. Total RNA was isolated followed by qRT-PCR with IDH2 and actin primers. FIG. 5C indicated cells were treated with vehicle or compounds (10 uM) for 16 hr. Total genomic DNA was isolated, slot-blotted onto a nitrocellulose membrane, followed by blotting with 5-hmC antibodies (top panels). Blots were also stained with methylene blue, to determine equal loading of DNA (bottom panel).
Identification of 55152 (18-B3) scaffold as a WEE1 epigenetic inhibitor: Two major hits, 367416 (16-G9) and 55152 (18-B3) were taken up for further characterization. […] Accordingly, melanoma cell line WM66 and primary melanocytes were treated with inhibitors and IDH2 mRNA levels were measure by real time PCR.

[4] = Microsome Stability, Human; format: in vitro ADME
Method: as §2

T1 sequence (P0C1S8 212-486): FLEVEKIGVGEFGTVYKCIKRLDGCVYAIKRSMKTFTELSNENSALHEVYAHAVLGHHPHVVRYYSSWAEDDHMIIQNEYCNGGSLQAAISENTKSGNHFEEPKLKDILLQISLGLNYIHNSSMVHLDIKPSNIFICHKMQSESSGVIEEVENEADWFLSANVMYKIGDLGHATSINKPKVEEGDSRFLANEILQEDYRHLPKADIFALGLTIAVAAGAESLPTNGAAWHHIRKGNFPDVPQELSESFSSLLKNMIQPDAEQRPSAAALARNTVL
T2 sequence (P30291 299-569): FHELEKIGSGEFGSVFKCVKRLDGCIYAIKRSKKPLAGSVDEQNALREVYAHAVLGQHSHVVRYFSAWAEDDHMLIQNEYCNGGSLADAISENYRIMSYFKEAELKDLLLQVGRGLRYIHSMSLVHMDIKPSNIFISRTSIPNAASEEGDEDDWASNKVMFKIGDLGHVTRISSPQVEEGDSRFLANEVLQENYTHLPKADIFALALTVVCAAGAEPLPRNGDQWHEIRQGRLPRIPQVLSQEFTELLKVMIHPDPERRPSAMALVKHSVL
WEE1, sequence (P30291 whole entry): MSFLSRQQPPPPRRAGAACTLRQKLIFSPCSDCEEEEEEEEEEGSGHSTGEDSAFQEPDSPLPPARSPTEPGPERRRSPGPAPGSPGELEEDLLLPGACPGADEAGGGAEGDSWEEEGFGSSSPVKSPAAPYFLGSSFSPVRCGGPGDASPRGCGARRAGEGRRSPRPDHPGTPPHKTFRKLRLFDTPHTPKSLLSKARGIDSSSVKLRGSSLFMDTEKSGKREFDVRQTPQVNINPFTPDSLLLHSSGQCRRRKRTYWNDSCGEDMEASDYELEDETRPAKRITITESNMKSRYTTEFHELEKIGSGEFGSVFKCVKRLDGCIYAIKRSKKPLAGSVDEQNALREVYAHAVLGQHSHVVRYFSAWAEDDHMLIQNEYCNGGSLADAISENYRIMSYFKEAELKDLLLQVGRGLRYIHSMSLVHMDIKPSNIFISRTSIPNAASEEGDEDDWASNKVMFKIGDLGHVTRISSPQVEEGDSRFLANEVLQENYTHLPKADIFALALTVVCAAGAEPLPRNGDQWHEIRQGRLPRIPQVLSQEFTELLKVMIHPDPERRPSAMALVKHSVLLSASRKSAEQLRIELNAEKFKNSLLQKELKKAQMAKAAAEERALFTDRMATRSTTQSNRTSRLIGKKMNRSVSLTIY

Nc1ccc(NC(=O)c2ccc(C(=O)Nc3ccc(N)cc3)cc2)cc1 [SG5-061, N^1,N^4-bis(4-aminophenyl)terephthalamide]
IC50 (LAPC4 cells): 1000 nM | ΔTm for Wee2 KD (° C.) (Wee2 KD): 0.1 °C | ΔTm for Wee2 KD (° C.) (Wee2 KD; listed as 55152 (18-B3)): 1.1 °C | WEE1 auto-phosphorylation (WEE1): significant loss of WEE1 auto-phosphorylation | Plasma Stability % remaining @ 3 hrs Human (Plasma Stability, Human): 58.57% | Plasma Stability % remaining @ 3 hrs Mouse (Plasma Stability, Mouse): 50.76% | Cdc2 Tyr15-phosphorylation (pY15-Cdc2) [1]: did not affect Cdc2 Tyr15-phosphotylation | ΔTm for Wee1 KD (° C.) (Wee1 KD): 0.5 °C | ΔTm for Wee1 KD (° C.) (Wee1 KD; listed as 55152 (18-B3)): 0.8 °C | Microsome Stability % remaining @ 1 hr Mouse [2]: 95.21% | IDH2 mRNA levels [3]: Significant increase in IDH2 mRNA levels | Microsome Stability % remaining @ 1 hr Human [4]: 64.56%
